Legend:
[1] = target: hemolysin alpha from Staphylococcus aureus (Staphylococcus aureus, UniProt P09616); test: cell-based
[2] = target: S. aureus Alpha hemolysin (Staphylococcus aureus, UniProt P09616); test: cell-based; settings: A549-LDH Assay activity
S. aureus Alpha hemolysin, sequence (P09616 27-319 limits assumed): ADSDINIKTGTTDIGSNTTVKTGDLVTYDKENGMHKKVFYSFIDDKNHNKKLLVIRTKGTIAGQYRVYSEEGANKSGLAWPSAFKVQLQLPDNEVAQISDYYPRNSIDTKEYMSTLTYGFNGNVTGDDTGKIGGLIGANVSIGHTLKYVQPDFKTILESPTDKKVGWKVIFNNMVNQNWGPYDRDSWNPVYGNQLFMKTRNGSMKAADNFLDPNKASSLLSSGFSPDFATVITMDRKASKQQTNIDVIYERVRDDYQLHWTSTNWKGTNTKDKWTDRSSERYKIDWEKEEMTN

hemolysin alpha from Staphylococcus aureus, sequence (P09616 27-319 limits assumed): as above

SMILES	EC50 [1]	EC50 [2]
Cc1cc2[nH]c(=O)c(=O)[nH]c2cc1S(=O)(=O)Nc1ccc(-c2ccc3c(c2)NC(=O)CO3)c(Cl)c1 [Compound 355, N-[3-chloro-4-(3-oxo-4H-1,4-benzoxazin-6-yl)phenyl]-7-methyl-2,3-dioxo-1,4-dihydroquinoxaline-6-sulfonamide]	< 30 nM	< 30 nM
Cc1cc2[nH]c(=O)c(=O)[nH]c2cc1S(=O)(=O)Nc1ccc(-c2ccc3c(c2)N(C)C(=O)CO3)c(Cl)c1 [Compound 356, N-[3-chloro-4-(4-methyl-3-oxo-1,4-benzoxazin-6-yl)phenyl]-7-methyl-2,3-dioxo-1,4-dihydroquinoxaline-6-sulfonamide]	< 30 nM	30 to 100 nM
Cc1cc2[nH]c(=O)c(=O)[nH]c2cc1S(=O)(=O)Nc1ccc(-c2cc(F)c3c(c2)NCCO3)c(Cl)c1 [Compound 357, N-[3-chloro-4-(8-fluoro-3,4-dihydro-2H-1,4-benzoxazin-6-yl)phenyl]-7-methyl-2,3-dioxo-1,4-dihydroquinoxaline-6-sulfonamide]	< 30 nM	100 to 1000 nM
Cc1cc2[nH]c(=O)c(=O)[nH]c2cc1S(=O)(=O)Nc1ccc(-c2ccc(=O)[nH]c2)c(Cl)c1 [Compound 358, N-[3-chloro-4-(6-oxo-1H-pyridin-3-yl)phenyl]-7-methyl-2,3-dioxo-1,4-dihydroquinoxaline-6-sulfonamide]	100 to 1000 nM	30 to 100 nM
Cc1cc2[nH]c(=O)c(=O)[nH]c2cc1S(=O)(=O)Nc1ccc(-c2ccc3nc[nH]c3c2)c(Cl)c1 [Compound 359, N-[4-(3H-benzimidazol-5-yl)-3-chloro-phenyl]-7-methyl-2,3-dioxo-1,4-dihydroquinoxaline-6-sulfonamide]	100 to 1000 nM	30 to 100 nM
Cc1cc2[nH]c(=O)c(=O)[nH]c2cc1S(=O)(=O)Nc1ccc(-c2ccc(C#N)c(N(C)C)c2)c(Cl)c1 [Compound 360, N-[3-chloro-4-[4-cyano-3-(dimethylamino)phenyl]phenyl]-7-methyl-2,3-dioxo-1,4-dihydroquinoxaline-6-sulfonamide]	30 to 100 nM	100 to 1000 nM
Cc1nc2ccc(-c3ccc(NS(=O)(=O)c4cc5[nH]c(=O)c(=O)[nH]c5cc4C)cc3Cl)cc2[nH]1 [Compound 361, N-[3-chloro-4-(2-methyl-3H-benzimidazol-5-yl)phenyl]-7-methyl-2,3-dioxo-1,4-dihydroquinoxaline-6-sulfonamide]	30 to 100 nM	< 30 nM
Cc1cc2[nH]c(=O)c(=O)[nH]c2cc1S(=O)(=O)Nc1ccc(C2CCC2)cc1 [Compound 362, N-(4-cyclobutylphenyl)-7-methyl-2,3-dioxo-1,4-dihydroquinoxaline-6-sulfonamide]	100 to 1000 nM	30 to 100 nM
Cc1cc2[nH]c(=O)c(=O)[nH]c2cc1S(=O)(=O)Nc1ccc(-c2cc(F)cc(C(N)=O)c2)c(C(F)(F)F)c1 [Compound 363, 3-fluoro-5-[4-[(7-methyl-2,3-dioxo-1,4-dihydroquinoxalin-6-yl)sulfonylamino]-2-(trifluoromethyl)phenyl]benzamide]	30 to 100 nM	30 to 100 nM
Cc1cc2ccc(-c3ccc(NS(=O)(=O)c4cc5[nH]c(=O)c(=O)[nH]c5cc4C)cc3C(F)(F)F)cc2[nH]1 [Compound 364, 7-methyl-N-[4-(2-methyl-1H-indol-6-yl)-3-(trifluoromethyl)phenyl]-2,3-dioxo-1,4-dihydroquinoxaline-6-sulfonamide]	< 30 nM	< 30 nM
Cc1cc2[nH]c(=O)c(=O)[nH]c2cc1S(=O)(=O)Nc1ccc(-c2ccc3cccnc3c2)c(C(F)(F)F)c1 [Compound 365, 7-methyl-2,3-dioxo-N-[4-(7-quinolyl)-3-(trifluoromethyl)phenyl]-1,4-dihydroquinoxaline-6-sulfonamide]	< 30 nM	100 to 1000 nM
Cc1cc2[nH]c(=O)c(=O)[nH]c2cc1S(=O)(=O)Nc1ccc(-c2cccc(O)c2)c(C(F)(F)F)c1 [Compound 366, N-[4-(3-hydroxyphenyl)-3-(trifluoromethyl)phenyl]-7-methyl-2,3-dioxo-1,4-dihydroquinoxaline-6-sulfonamide]	< 30 nM	30 to 100 nM
Cc1cc2[nH]c(=O)c(=O)[nH]c2cc1S(=O)(=O)Nc1ccc(-c2ccc3c(c2)NC(=O)CO3)c(C(F)(F)F)c1 [Compound 367, 7-methyl-2,3-dioxo-N-[4-(3-oxo-4H-1,4-benzoxazin-6-yl)-3-(trifluoromethyl)phenyl]-1,4-dihydroquinoxaline-6-sulfonamide]	< 30 nM	30 to 100 nM
Cc1cc2[nH]c(=O)c(=O)[nH]c2cc1S(=O)(=O)Nc1ccc(-c2ccc(F)c(C(N)=O)c2)c(C(F)(F)F)c1 [Compound 368, 2-fluoro-5-[4-[(7-methyl-2,3-dioxo-1,4-dihydroquinoxalin-6-yl)sulfonylamino]-2-(trifluoromethyl)phenyl]benzamide]	30 to 100 nM	100 to 1000 nM
Cc1cc2[nH]c(=O)c(=O)[nH]c2cc1S(=O)(=O)Nc1ccc(-c2ccc3cc[nH]c3c2)c(C(F)(F)F)c1 [Compound 369, N-[4-(1H-indol-6-yl)-3-(trifluoromethyl)phenyl]-7-methyl-2,3-dioxo-1,4-dihydroquinoxaline-6-sulfonamide]	< 30 nM	30 to 100 nM
Cc1cc2[nH]c(=O)c(=O)[nH]c2cc1S(=O)(=O)Nc1ccc(-c2ccc3cn[nH]c3c2)c(Cl)c1 [Compound 370, N-[3-chloro-4-(1H-indazol-6-yl)phenyl]-7-methyl-2,3-dioxo-1,4-dihydroquinoxaline-6-sulfonamide]	< 30 nM	< 30 nM

SMILES	EC50 [1]	EC50 [2]
C#Cc1cc(NS(=O)(=O)c2cc3[nH]c(=O)c(=O)[nH]c3cc2C)ccc1-c1ccc2oc(C)nc2c1 [Compound 373, N-[3-ethynyl-4-(2-methyl-1,3-benzoxazol-5-yl)phenyl]-7-methyl-2,3-dioxo-1,4-dihydroquinoxaline-6-sulfonamide]	< 30 nM	< 30 nM
Cc1cc2[nH]c(=O)c(=O)[nH]c2cc1S(=O)(=O)Nc1ccc(-c2ccc3cc[nH]c3c2)c(Br)c1 [Compound 374, N-[3-bromo-4-(1H-indol-6-yl)phenyl]-7-methyl-2,3-dioxo-1,4-dihydroquinoxaline-6-sulfonamide]	< 30 nM	< 30 nM
Cc1nc2cc(-c3ncc(NS(=O)(=O)c4cc5[nH]c(=O)c(=O)[nH]c5cc4C)cc3Cl)ccc2o1 [Compound 375, N-[5-chloro-6-(2-methyl-1,3-benzoxazol-5-yl)-3-pyridyl]-7-methyl-2,3-dioxo-1,4-dihydroquinoxaline-6-sulfonamide]	30 to 100 nM	30 to 100 nM
Cc1cc2[nH]c(=O)c(=O)[nH]c2cc1S(=O)(=O)Nc1ccc(-c2ccc(C#N)cc2)c(Cl)c1 [Compound 376, N-[3-chloro-4-(4-cyanophenyl)phenyl]-7-methyl-2,3-dioxo-1,4-dihydroquinoxaline-6-sulfonamide]	< 30 nM	30 to 100 nM
Cc1cc2[nH]c(=O)c(=O)[nH]c2cc1S(=O)(=O)Nc1ccc(-c2ccc(F)cc2)c(C#N)c1 [Compound 377, N-[3-cyano-4-(4-fluorophenyl)phenyl]-7-methyl-2,3-dioxo-1,4-dihydroquinoxaline-6-sulfonamide]	100 to 1000 nM	100 to 1000 nM
C#Cc1cc(NS(=O)(=O)c2cc3[nH]c(=O)c(=O)[nH]c3cc2C)ccc1-c1ccc(F)cc1 [Compound 378, N-[3-ethynyl-4-(4-fluorophenyl)phenyl]-7-methyl-2,3-dioxo-1,4-dihydroquinoxaline-6-sulfonamide]	< 30 nM	< 30 nM
O=c1[nH]c2cc(C3CC3)c(S(=O)(=O)Nc3cnc(-c4ccc(F)cc4)c(Cl)c3)cc2[nH]c1=O [Compound 379, N-[5-chloro-6-(4-fluorophenyl)-3-pyridyl]-7-cyclopropyl-2,3-dioxo-1,4-dihydroquinoxaline-6-sulfonamide]	100 to 1000 nM	100 to 1000 nM
COc1cc2[nH]c(=O)c(=O)[nH]c2cc1S(=O)(=O)Nc1ccc(Cl)cc1 [Compound 380, N-(4-chlorophenyl)-7-methoxy-2,3-dioxo-1,4-dihydroquinoxaline-6-sulfonamide]	1000 to 3500 nM	100 to 1000 nM
CNc1cc2[nH]c(=O)c(=O)[nH]c2cc1S(=O)(=O)Nc1ccc(OC(F)(F)F)cc1 [Compound 381, 7-(methylamino)-2,3-dioxo-N-[4-(trifluoromethoxy)phenyl]-1,4-dihydroquinoxaline-6-sulfonamide]	100 to 1000 nM	100 to 1000 nM
O=c1[nH]c2cc(OC3CC3)c(S(=O)(=O)Nc3ccc(OC(F)(F)F)cc3)cc2[nH]c1=O [Compound 382, 7-(cyclopropoxy)-2,3-dioxo-N-[4-(trifluoromethoxy)phenyl]-1,4-dihydroquinoxaline-6-sulfonamide]	1000 to 3500 nM	100 to 1000 nM
COc1cc2[nH]c(=O)c(=O)[nH]c2cc1S(=O)(=O)Nc1ccc(Br)cc1 [Compound 383, N-(4-bromophenyl)-7-methoxy-2,3-dioxo-1,4-dihydroquinoxaline-6-sulfonamide]	1000 to 3500 nM	100 to 1000 nM
Cc1cc2[nH]c(=O)c(=O)[nH]c2cc1S(=O)(=O)Nc1ccc(C2COC2)cc1 [Compound 384, 7-methyl-N-[4-(oxetan-3-yl)phenyl]-2,3-dioxo-1,4-dihydroquinoxaline-6-sulfonamide]	1000 to 3500 nM	100 to 1000 nM
Cc1cc2[nH]c(=O)c(=O)[nH]c2cc1S(=O)(=O)Nc1cnc(-n2nccn2)c(Cl)c1 [Compound 385, N-[5-chloro-6-(triazol-2-yl)-3-pyridyl]-7-methyl-2,3-dioxo-1,4-dihydroquinoxaline-6-sulfonamide]	1000 to 3500 nM	100 to 1000 nM
Cc1cc2[nH]c(=O)c(=O)[nH]c2cc1S(=O)(=O)Nc1ccc(-c2cccc(O)c2)c(Cl)c1 [Compound 386, N-[3-chloro-4-(3-hydroxyphenyl)phenyl]-7-methyl-2,3-dioxo-1,4-dihydroquinoxaline-6-sulfonamide]	< 30 nM	< 30 nM
[2H]C([2H])([2H])c1cc2[nH]c(=O)c(=O)[nH]c2cc1S(=O)(=O)Nc1ccc(-c2ccc(F)cc2)c(Cl)c1 [Compound 387, N-[3-chloro-4-(4-fluorophenyl)phenyl]-2,3-dioxo-7-(trideuteriomethyl)-1,4-dihydroquinoxaline-6-sulfonamide]	< 30 nM	30 to 100 nM

Reference: patent US20240376084A1, “INHIBITORS OF ALPHA-HEMOLYSIN OF STAPHYLOCOCCUS AUREUS” (Helmholtz-Zentrum Fur Infektionsforschung GmbH, priority 2021, published 2024)
